Patent US20230012420A1, “METHODS AND COMPOSTIONS FOR INHIBITING P97” (California Institute of Technology, priority 2021, published 2023)

Experiments:
Assay type in all cases: cell-based, human
p97^R155H/+ MNs [1] = experiment: Proteomic analysis (LC-MS/MS) of D20 MNs after p97 inhibitor treatment; settings: for Tau and MCM6 (proteomics): 6 days of treatment, 400 nM; for number of the 440 downregulated proteins that were increased after treatment / number of the 920 upregulated proteins that were reduced after treatment: 6 days, count stated for treatment with CB-5083 or NMS-873 (FIG. 5E)
Protocol: The maturation of MNs was followed using a 14 day protocol from BrainXell. Briefly, the MNs were thawed and plated on poly-lysine (Sigma, cat #P7886) coated plates in MN maturation medium containing DMEM/F12 (Gibco, cat #11330-032) and neurobasal medium (1:1 v/v), 2% 50× B27, 1% 100× N2, 0.25% 100× Glutamax, 10 ng/mL BDNF (Peprotech, cat #450-02), 10 ng/mL GDNF(Peprotech, cat #450-10), 1 ng/mL TGF-β1 (Peprotech, cat #100-21c), and 1× Brainfast supplement (BrainXell). The medium was changed with the same medium containing 15 μg/mL geltrex on day 1. An equal volume of maturation medium (excluding Geltrex) was added on day 4. Half of the medium (excluding the Brainfast supplement and Geltrex) was changed twice weekly from day 7. The MNs can be maintained for at least three weeks. […] NMS-873, cat #406458), or same volume of DMSO at D14, and then incubated for 6 days. The cells were harvested on D20. After culture, MN cells were scraped off the plates, washed with DPBS, and centrifuged at 300 g for 4 min to remove supernatant. Pellets were frozen at -80° C. The mass spec samples were prepared by following instructions for the […] Sample Prep Kit (Thermo Scientific, cat #A4006). Samples were dried using a vacuum centrifuge and resuspended in 0.1% formic acid (Thermo, cat #85178) water solution. Peptide concentrations were measured using the Quantitative Fluorometric Peptide Assay kit (Thermo, cat #23290). LC-MS/MS experiments were performed by loading 0.5 μg sample onto an EASY-nLC 1000 (Thermo Scientific) connected to an Orbitrap Eclipse Tribrid mass spectrometer (Thermo Scientific). Peptides were separated on an Aurora UHPLC Column (25 cm×75 μm, 1.6 μm C18, AUR2-25075C18A, Ion Opticks) with a flow rate of 0.4 μL/min and a total duration time of 131 min following the gradient composed of 3% Solvent B for 1 min, 3-19% B for 72 min, 19-29% B for 28 min, 29-41% B for 20 min, 41-95% B for 3 min, and 95-98% B for 7 min. Solvent A consists of 97.8% H2O, 2% ACN, and 0.2% formic acid; solvent B consists of 19.8% H2O, 80% ACN, and 0.2% formic acid. MS1 scans were acquired with a range of 400-1600 m/z in the Orbitrap at 120 k resolution. The maximum injection time was 50 ms, and the AGC target was 2×105. The filter dynamic exclusion was set to exclude after 1 time, 30 s duration, and 10 ppm mass tolerance. MS2 scans were acquired with quadrupole isolation mode and higher-energy collisional dissociation (HCD) activation type in the Iontrap. The isolation window was 1.4 m/z, collision energy was 35%, maximum injection time was 35 ms, and the AGC target was 1×104. Other global settings were as below: ion source type, NSI; spray voltage, positive ion 2400 V, negative ion 600 V; ion transfer tube temperature, 300° C. Method modifications and data collection were performed using Xcalibur software (Thermo Scientific). Proteomic analysis was performed using Proteome Discoverer 2.4 (Thermo Scientific) software with the Uniprot human database and the SequestHT with Percolator validation. Protein abundance normalization was performed on total peptide. The data exported from PD2.4 were then used for further analysis. Limma analysis was performed using R studio following the user guide (Gordon, 2020). The volcano figures were plotted using Origin 2019b. PCA analyses were generated with PD2.4 and plotted using Prism 7. The Venn diagram was performed using FunRich 3.1. The heatmap figure was performed with prism 7. Functional enrichment analyses were performed with g:Profiler (Raudvere, 2019). The bubble plot was generated using Origin 2019b.

iso p97^R155H/+ MNs = experiment: MN cell survival assay (live cell staining), isogenic mutant line; settings: 100 nM for 6 days, vs DMSO (FIG. 5B)
Protocol: To compare p97 WT and […]/+ cells, MNs were thawed and plated on poly-lysine coated 96-well plates (Greiner, cat #655090) at a density of 1000 cells per 100 μL per well in MN maturation medium as described in the “motor neuron differentiation and maturation” section. Medium was changed with 100 μL of the same medium containing 15 μg/mL geltrex on day 1. 100 μL additional medium (excluding Geltrex) was added on day 4. Half of the medium (excluding the Brainfast supplement and Geltrex) was changed on day 7 and 11. 200 nM Ara-C was added to inhibit non-MN cells from proliferating. On day 14, the medium was replaced with N2 medium (DMEM/F12 and neurobasal medium, 1:1 v/v, 1% 100× N2). N2 medium was changed every six days. Cell viability was monitored every 3 or 4 days by staining with Calcein AM Viability Dye (Thermo, cat #65-0853-81), acquiring and analyzing images with ImageXpress Micro Confocal High-Content Imaging System (Molecular Devices). For p97 inhibitor treatment, MNs were plated on poly-lysine coated 384-well plates (Greiner, cat #781946) at a density of 500 cells per 30 μL per well. The same medium was used for plating and maintaining cells. Cell viability was monitored at day 1 and day 14. […]

p97^R155H/+ MNs [2] = experiment: Western blot of dysregulated protein levels after p97 inhibitor treatment; settings: 400 nM for 6 days, 20 dpm (FIG. 5C)
Protocol: The maturation of MNs was followed using a 14 day protocol from BrainXell. Briefly, the MNs were thawed and plated on poly-lysine (Sigma, cat #P7886) coated plates in MN maturation medium containing DMEM/F12 (Gibco, cat #11330-032) and neurobasal medium (1:1 v/v), 2% 50× B27, 1% 100× N2, 0.25% 100× Glutamax, 10 ng/mL BDNF (Peprotech, cat #450-02), 10 ng/mL GDNF(Peprotech, cat #450-10), 1 ng/mL TGF-β1 (Peprotech, cat #100-21c), and 1× Brainfast supplement (BrainXell). The medium was changed with the same medium containing 15 μg/mL geltrex on day 1. An equal volume of maturation medium (excluding Geltrex) was added on day 4. Half of the medium (excluding the Brainfast supplement and Geltrex) was changed twice weekly from day 7. The MNs can be maintained for at least three weeks. […] NMS-873, cat #406458), or same volume of DMSO at D14, and then incubated for 6 days. The cells were harvested on D20. MN cells were scraped off plates, washed with DPBS, and centrifuged at 300 g for 4 min to remove supernatant. Pellets were frozen at −80° C. Pellets were resuspended with 100 lysis buffer (50 mM Tris-HCl pH 8.0, 150 mM NaCl, 1% Triton X-100 with protease inhibitor tablet, 50 μM MG132, and 50 mM NEM), and incubated on ice for 10 min with occasional vortexing. After that, samples were centrifuged at 15000 rpm at 4° C. for 10 min and transferred 90 μL cell lysate into a 1.5 mL tube. Total soluble protein concentrations were measured using the Bradford test (Bio-Rad, cat #5000006). 30 μL 4×Laemmli sample buffer (Bio-Rad, cat #161-0774) was added and samples were boiled for 5 min. An equal amount of protein was loaded and separated using 4-20% Mini-PROTEAN TGX precast gels (Bio-Rad, cat #456-1096) and transferred to nitrocellulose membranes using Trans-Blot Turbo Transfer System (Bio-Rad, cat #170-4155). Membranes were blocked with 1×TBST with 5% w/v nonfat milk, incubated with primary antibodies for 2 h at room temperature or overnight at 4° C., and incubated with HRP-conjugated secondary antibodies (Bio-Rad, 1:3000 dilution) for 2 h at room temperature. […] The blot densities were analyzed using Image Lab 6.0.1 software (Bio-Rad).

p97^R155H/+ MNs [3] = experiment: MN cell survival assay (Calcein AM live cell staining); settings: 400 nM, treated at 14 dpm for 6 days, read at 20 dpm, vs DMSO (FIG. 5A)
Protocol: The maturation of MNs was followed using a 14 day protocol from BrainXell. Briefly, the MNs were thawed and plated on poly-lysine (Sigma, cat #P7886) coated plates in MN maturation medium containing DMEM/F12 (Gibco, cat #11330-032) and neurobasal medium (1:1 v/v), 2% 50× B27, 1% 100× N2, 0.25% 100× Glutamax, 10 ng/mL BDNF (Peprotech, cat #450-02), 10 ng/mL GDNF(Peprotech, cat #450-10), 1 ng/mL TGF-β1 (Peprotech, cat #100-21c), and 1× Brainfast supplement (BrainXell). The medium was changed with the same medium containing 15 μg/mL geltrex on day 1. An equal volume of maturation medium (excluding Geltrex) was added on day 4. Half of the medium (excluding the Brainfast supplement and Geltrex) was changed twice weekly from day 7. The MNs can be maintained for at least three weeks. […] NMS-873, cat #406458), or same volume of DMSO at D14, and then incubated for 6 days. The cells were harvested on D20. […] Cell viability was monitored every 3 or 4 days by staining with Calcein AM Viability Dye (Thermo, cat #65-0853-81), acquiring and analyzing images with ImageXpress Micro Confocal High-Content Imaging System (Molecular Devices). […] Cell viability was monitored at day 1 and day 14. […]

| Structure (SMILES) | Tau and MCM6 (proteomics) (p97^R155H/+ MNs [1]) | number of the 440 downregulated proteins that were increased after treatment (p97^R155H/+ MNs [1]) | number of the 920 upregulated proteins that were reduced after treatment (p97^R155H/+ MNs [1]) | loss of MNs (neuron loss, live cell staining) (iso p97^R155H/+ MNs) | LC3 level (western blot) (p97^R155H/+ MNs [2]) | protein levels of ISL1, NES, Tau, pTau, MCM6, p53, y-H2Ax (western blot) (p97^R155H/+ MNs [2]) | loss of MNs (neuron loss, live cell staining) (p97^R155H/+ MNs [3]) |
| --- | --- | --- | --- | --- | --- | --- | --- |
| Cc1cc(OCc2nnc(SC3CCCC3)n2-c2cccnc2)ccc1-c1ccc(S(C)(=O)=O)cc1 [NMS-873, 3-[3-cyclopentylsulfanyl-5-[[3-methyl-4-(4-methylsulfonylphenyl)phenoxy]methyl]-1,2,4-triazol-4-yl]pyridine] | reduced | 192 | 428 | significantly reduced the loss of MNs | slightly elevated | reversed increases | significantly reduced the loss of MNs |
| Cc1cc2c(C(N)=O)cccc2n1-c1nc2c(c(NCc3ccccc3)n1)COCC2 [CB-5083] | reduced | 192 | 428 | significantly reduced the loss of MNs | slightly elevated | reversed increases | significantly reduced the loss of MNs |
